Reference: patent US20060058307A1, “Combination of an atp-competitive inhibitor of bcr/abl kinase activity and a tyrphostin analog” (priority 2001, published 2006)
Like-named read-outs stand apart in the source and are kept apart here.

Tests used:
[1] = animal testing, in vivo; unpublished observations of Stinson, Narayanan and Sausville; adaphostin compared with AG957; cited from earlier work
p210^bcr/abl = details: immune complex kinase assays; cited from earlier work
K562 cells [2] = assay: Clonogenic assay (colony formation in 0.3% agar) of K562 cells; assay type: cell-based, human; details: 24 h
Method: At the completion of the incubation, cells are washed, plated in 0.3% agar and incubated for 10-14 days before colony formation is assessed. For results see under (a) in Table (A). […] At the completion of the incubation, colony formation ability is assessed as described in the last paragraph.

K562 cells [3] = assay: Morphologic changes associated with apoptosis (Hoechst 33258 staining) in K562 cells; assay type: cell-based, human; details: 24 h
Method: For morphological analysis, cells are fixed in 3:1 (v:v) methanol:acetic acid, stained with 1 μg/ml Hoechst 33258 in 50% (v:v) glycerol and examined under epi-illumination using a Zeiss Axioplan microscope. Two hundred to 300 cells/sample are scored for apoptotic changes (peripheral chromatin condensed or nuclear fragmentation) as described in Svingen et al., Clin. Cancer Res. 6, 237-49 (2000).
Under (c) in Table (A), K562 cells are incubated with the concentration indicated in the subsequent table in the presence of diluent or 10 μmol/l STI 571, fixed, and examined for apoptotic morphological changes.

CML CFU-G = assay: Granulocyte colony formation of circulating mononuclear cells from CML patients (CFU-G / CFU-GM); assay type: cell-based, human; details: for Number of colonies (% of control): (d) Pt. #30 CFU-GM, 24 h; for IC50: Homo sapiens, CFU-GM, linear regression
Method: Clinical samples are studied under the aegis of a protocol approved by the Institutional Review Board of the Mayo Clinic in accordance with the policies of the US Department of Health and Human Services. […] CML CFU-G, 10 mL of peripheral blood is drawn from normal volunteers and consenting patients with previously untreated chronic phase CML using EDTA as an anticoagulant. […] At the completion of the incubation, samples are sedimented at 200×g for 10 min, resuspended at a concentration of 1×10^6/ml in medium C containing 50 ng/mL G-CSF, plated in 0.3% agar, and incubated for 7-8 d. Colonies containing […] are counted on an inverted phase contrast microscope.

[4] = compared with AG957; Svingen et al.; cited from earlier work

Structure (SMILES): COC(=O)c1ccc(NCc2cc(O)ccc2O)cc1 [AG957]
- serum half-life [1]: very short
- p210^bcr/abl activity (p210^bcr/abl): inhibit

Structure (SMILES): O=C(OC12CC3CC(CC(C3)C1)C2)c1ccc(NCc2cc(O)ccc2O)cc1 [Adaphostin, 4-{[(2,5-dihydroxyphenyl)methyl]amino}-benzoic acid adamantyl ester]
- Number of colonies (% of control) (K562 cells [2]; (a) adaphostin 2.5 μmol/l without STI571): 56 ± 4 % of control
- Number of colonies (% of control) (K562 cells [2]; (a) adaphostin 5.1 μmol/l without STI571): 46 ± 4 % of control
- Number of colonies (% of control) (K562 cells [2]; (a) adaphostin 7.7 μmol/l without STI571): 27 ± 4 % of control
- Number of colonies (% of control) (K562 cells [2]; (a) adaphostin 10.2 μmol/l without STI571): 10 ± 1 % of control
- Number of colonies (% of control) (K562 cells [2]; (b) adaphostin 5.2 μmol/l, STI571 0): 35 ± 3 % of control
- Apoptosis (% of total cells) (K562 cells [3]; (c) adaphostin 0.62 μmol/l without STI571): 2.1 % of total cells
- Apoptosis (% of total cells) (K562 cells [3]; (c) adaphostin 1.25 μmol/l without STI571): 10.9 % of total cells
- Apoptosis (% of total cells) (K562 cells [3]; (c) adaphostin 2.50 μmol/l without STI571): 41.8 % of total cells
- Apoptosis (% of total cells) (K562 cells [3]; (c) adaphostin 3.75 μmol/l without STI571): 62.8 % of total cells
- Apoptosis (% of total cells) (K562 cells [3]; (c) adaphostin 5.00 μmol/l without STI571): 84.1 % of total cells
- Number of colonies (% of control) (CML CFU-G; adaphostin 3.2 μmol/l without STI571): 93 ± 1.9 % of control
- Number of colonies (% of control) (CML CFU-G; adaphostin 6.4 μmol/l without STI571): 71 ± 2.2 % of control
- Number of colonies (% of control) (CML CFU-G; adaphostin 12.7 μmol/l without STI571): 55 ± 2.5 % of control
- Number of colonies (% of control) (CML CFU-G; adaphostin 15.9 μmol/l without STI571): 40 ± 1.2 % of control
- Number of colonies (% of control) (CML CFU-G; adaphostin 19.1 μmol/l without STI571): 18 ± 0.7 % of control
- IC50 (CML CFU-G; read-out: IC50 for Adaphostin in presence of 20 μmol/l STI571, CFU-GM, patient number 28): 5 µM
- IC50 (CML CFU-G; read-out: IC50 for Adaphostin in presence of 20 μmol/l STI571, CFU-GM, patient number 29): 14 µM
- IC50 (CML CFU-G; read-out: IC50 for Adaphostin in presence of 20 μmol/l STI571, CFU-GM, patient number 30): 8.5 µM
- IC50 (CML CFU-G; read-out: IC50 for Adaphostin in presence of 20 μmol/l STI571, CFU-GM, patient number 31): 10 µM
- IC50 (CML CFU-G; read-out: IC50 for Adaphostin in presence of 20 μmol/l STI571, CFU-GM, patient number 33): 16 µM
- IC50 (CML CFU-G; read-out: IC50 for Adaphostin in presence of 20 μmol/l STI571, CFU-GM, patient number 34): 3.5 µM
- IC50 (CML CFU-G; read-out: IC50 for Adaphostin without STI571, CFU-GM, patient number 28): 13 µM
- IC50 (CML CFU-G; read-out: IC50 for Adaphostin without STI571, CFU-GM, patient number 29): > 20 µM
- IC50 (CML CFU-G; read-out: IC50 for Adaphostin without STI571, CFU-GM, patient number 30): 13.5 µM
- IC50 (CML CFU-G; read-out: IC50 for Adaphostin without STI571, CFU-GM, patient number 31): 8.5 µM
- IC50 (CML CFU-G; read-out: IC50 for Adaphostin without STI571, CFU-GM, patient number 33): 23 µM
- IC50 (CML CFU-G; read-out: IC50 for Adaphostin without STI571, CFU-GM, patient number 34): 11 µM
- serum half-life [1]: longer
- potency in vitro [4]: higher

Structure (SMILES): Cc1ccc(NC(=O)c2ccc(CN3CCN(C)CC3)cc2)cc1Nc1nccc(-c2cccnc2)n1 [STI571, N-{5-[4-(4-methyl-piperazino-methyl)-benzoylamido]-2-methylphenyl}-4-(3-pyridyl)-2-pyrimidine-amine]
- Apoptosis (% of total cells) (K562 cells [3]; (c) STI571 10 μmol/l, adaphostin 0): 12.9 % of total cells
